Experimental data from patent US20020115624A1, “Alpha gylcosylceramides for treating bacterial and fungal infections” (priority 2000, published 2002).

Tests used:
M. tuberculosis (Erdman) = experiment: Intravenous inoculation model of tuberculosis: survival of infected BALB/c mice treated with α-galactosylceramide; assay type: in vivo
[1] = system: NK, B, CD8+, and CD4+ lymphocytes; conditions: cited from earlier work
NKT cells = conditions: specificity for the α-linkage; cited from earlier work

Compound	survival compared to the control group (M. tuberculosis (Erdman); BALB/c mice, 5×10^5 cfu IV, 2 ug IP on days 1, 5 and 9, nine mice per group)	mean survival time (MST) (M. tuberculosis (Erdman); BALB/c mice, 5×10^5 cfu IV, 2 ug IP on days 1, 5 and 9 after infection, vehicle MST 60 days, p<0.0001 by log-rank test)	bacteriological cure (M. tuberculosis (Erdman); preliminary experiments, all of the infected mice died despite treatment)	time to activation of NK, B, CD8+ and CD4+ lymphocytes (induction of CD69, CD80, CD86) ([1]; administration to mice in vivo)	time to detectable increase in serum IFN-γ ([1]; following in vivo treatment of mice)	activation of the immune system ([1]; mice that lack CD1d (CD1d −/−) or lack NKT cells (Jα281−/−))	activation of NKT cells (NKT cells)
CCCCCCCCCCCCCCCCCCCCCCCCCC(=O)N[C@@H](CO[C@H]1O[C@H](CO)[C@H](O)[C@H](O)[C@H]1O)[C@H](O)[C@H](O)CCCCCCCCCCCCCC [α-galactosylceramide]	increased survival	91 days	did not result in a bacteriological cure	3 to 24 h	≤ 18 h	does not occur	
β-galactosylceramide							does not activate NKT cells
